Patent EP0778733B1, “A BASIC PROTEIN COMPOSITION FOR KILLING OR INHIBITING MICROBIAL CELLS” (NOVO NORDISK A/S, priority 1994, dated 1996)

Experiments:
Format in all cases: cell-based
Pseudomonas aeruginosa = test: Impedimetric MIC / detection time, growing cells in TSB (Bactometer); design: key: n.e.: not effective; settings: Table 4, strain printed as Pseudomonas aeroginosa; determined as in Example 1 (inhibition of at least 100 hours); n.e. = not effective
Method: (§1) Volumes (1.0 ml) of TSB medium were added to Bactometer® wells. Protamine solutions (0.1 ml) were transferred to the wells which were sealed, connected to the Bactometer B123-2 (bioMérieux UK ltd., UK) and incubated at 25°C until a significant detectable increase in the electrical conductivity of the medium was registered and the detection time (DT) was recorded (maximum 100 h). Detection usually occurs when the cell concentration reaches 10^6-10^7 cfu/ml. For the Gram-positive strains the capacitance signal was monitored, while change in conductance was used for Gram-negative strains.
(§2) was measured in the Bactometer modules. The wells (containing 1 ml TSB and 0.1 ml protamine solution) were inoculated with 0.1 ml from a 10^-4 dilution of an inoculum culture, giving a final cell concentration in the well of approximately 10^3 cfu/ml. The concentration of protamine varied from 1 to 4000 µg/ml depending on the sensitivity of the strain investigated.
(§3) Minimum Inhibition Concentration (MIC) was determined as the lowest concentration of protamine resulting in absence of a DT.
(§4) When no DT was measured, the lethal/inhibitory effect on the cells were tested by plating the total well volume.
(§5) The minimum inhibition concentration (MIC) of various-substances was determined as described in Example 1. […]

Pseudomonas fluorescens [1] = test: as above; design: key: n.e.: not effective; settings: Table 4, determined as in Example 1 (inhibition of at least 100 hours); n.e. = not effective
Method: as §1, §2, §3, §4, §5

all the tested strains = test: Comparative impedimetric MIC, all tested strains of Table 4; settings: summary of Table 4
Method: (§6) The minimum inhibition concentration (MIC) of various-substances was determined as described in Example 1.
(§7) The following substances were tested: protamine (A), protamine sulphate (B), a peroxidase enzyme system (i.e. lactoperoxidase/glucoseoxidase (C)), subtilisin A (D), polyarginine (E) having an average molecular weight of about 6 kD and lysozyme (F) (150 000 units/mg; Johansen, C. et al., 1994).

Escherichia coli 0157:H7 = test: Impedimetric MIC / detection time, growing cells in TSB (Bactometer); settings: Table 4, strain printed as Escherichia coli; determined as in Example 1 (inhibition of at least 100 hours); n.e. = not effective
Method: as §1, §2, §3, §4, §6, §7

Vibrio paraheamolyticus = test: as above; settings: Table 4, determined as in Example 1 (inhibition of at least 100 hours); n.e. = not effective
Method: as §1, §2, §3, §4, §6, §7

Staphylococcus aureus = test: as above; settings: Table 4, determined as in Example 1 (inhibition of at least 100 hours); n.e. = not effective
Method: as §1, §2, §3, §4, §6, §7

Shewanella putrefaciens = test: as above; settings: Table 4, determined as in Example 1 (inhibition of at least 100 hours); n.e. = not effective
Method: as §1
(§8) was measured in the Bactometer modules. […]
as §3, §4, §5
(§9) Further, the influence of cell concentration on the anti-bacterial effect of protamine was tested using the materials and methods described in Example 1, i.e.the correlation between cell concentration and protamine concentration has been measured by the impedimetric assay.

Listeria monocytogenes = test: as above; settings: Table 4, determined as in Example 1 (inhibition of at least 100 hours); n.e. = not effective
Method: as §1, §8, §3, §4, §5, §9

Pseudomonas fluorescens [2] = test: Synergy growth inhibition experiments, impedimetric, factorial design; settings: each alone: protamine 250 µg/ml, polylysine 500 µg/ml, lactoperoxidase 2 U/ml, glucose oxidase 2 U/ml
Method: Impedimetric measurements carried out as described in example 1 have shown an synergistic effect between basic peptides as protamine, polyarginine or polylysine and lysozyme and/or glucose oxidase and/or the lactoperoxidase enzyme system depending on pH and NaCl concentration.
Growth inhibition experiments were conducted, wherein synergistic and additional effects were determined by mixing compounds in low concentrations not having any activity on their own and using a factoral design. The effects were measured as growth inhibition or a 100% bacteriocidal effect with a total kill of the inoculum.

## polyarginine
Pseudomonas aeruginosa
  Minimum Inhibitory Concentration: n.e.
Pseudomonas fluorescens [1]
  Minimum Inhibitory Concentration: n.e.
All the tested strains
  effectiveness for inhibiting the tested strains: effective for inhibiting all strains but Pseudomonas spp.
Escherichia coli 0157:H7
  Minimum Inhibitory Concentration: 1500 µg/mL
Vibrio paraheamolyticus
  Minimum Inhibitory Concentration: 2000 µg/mL
Staphylococcus aureus
  Minimum Inhibitory Concentration: 1500 µg/mL
Shewanella putrefaciens
  Minimum Inhibitory Concentration: 1500 µg/mL
Listeria monocytogenes
  Minimum Inhibitory Concentration: 2000 µg/mL

## polylysine
Pseudomonas fluorescens [2]
  growth inhibition, compound alone: not inhibited
